# Patent US9676793B2, “Co-crystals of 5-amino-2-oxothiazolo[4,5-d]pyrimidin-3(2H)-yl-5-hydroxymethyl tetrahydrofuran-3-yl acetate and methods for preparing and using the same” (Hoffmann-La Roche Inc., priority 2014, dated 2017)
# Read-outs that look alike come from different tables or passages of the source.
# Key:
# [1] = test system: HBV infected HepaRGd cells; assay: Cell viability by CellTiter-Glo, direct treatment; assay type: cell-based; conditions: for CC50: read-out: EC/CC50 (μM), Cell viability
# [2] = Cell viability by CellTiter-Glo, direct treatment; assay type: cell-based; conditions: human; for cytotoxicity at 7 days, 0.82 μM / cytotoxicity at 7 days, 2.47 μM / cytotoxicity at 7 days, 7.41 μM / cytotoxicity at 7 days, 22.22 μM / cytotoxicity at 7 days, 66.67 μM / cytotoxicity at 7 days, 200 μM: read-out: Cell viability (% inhibition)
smiles,measurement,setting,value
Nc1nc2c(sc(=O)n2[C@@H]2O[C@H](CO)C[C@H]2O)c(=O)[nH]1 [R06871765],CC50,[1]; EXP ID 10/15/2012 AL,> 200 µM
same,CC50,[1]; EXP ID 10/15/2012 VL,> 200 µM
same,maximum reduction in viability,[1]; highest concentration (200 μM),about 17%
same,"cytotoxicity at 7 days, 0.82 μM",[2]; EXP ID 10/15/2012 AL,-2.58%
same,"cytotoxicity at 7 days, 0.82 μM",[2]; EXP ID 10/15/2012 VL,3.23%
same,"cytotoxicity at 7 days, 2.47 μM",[2]; EXP ID 10/15/2012 AL,-2.57%
same,"cytotoxicity at 7 days, 2.47 μM",[2]; EXP ID 10/15/2012 VL,0.54%
same,"cytotoxicity at 7 days, 7.41 μM",[2]; EXP ID 10/15/2012 AL,-2.85%
same,"cytotoxicity at 7 days, 7.41 μM",[2]; EXP ID 10/15/2012 VL,-1.5%
same,"cytotoxicity at 7 days, 22.22 μM",[2]; EXP ID 10/15/2012 AL,-2.43%
same,"cytotoxicity at 7 days, 22.22 μM",[2]; EXP ID 10/15/2012 VL,-1.37%
same,"cytotoxicity at 7 days, 66.67 μM",[2]; EXP ID 10/15/2012 AL,3.7%
same,"cytotoxicity at 7 days, 66.67 μM",[2]; EXP ID 10/15/2012 VL,7.34%
same,"cytotoxicity at 7 days, 200 μM",[2]; EXP ID 10/15/2012 AL,12.3%
same,"cytotoxicity at 7 days, 200 μM",[2]; EXP ID 10/15/2012 VL,22%
same,CC50 at 7 days,[2]; HBV infected HepaRGd cells,> 200 µM
